# Data reported in patent US12582657B2, “Combination therapy including a KRAS G12C inhibitor and one or more additional pharmaceutically active agents for the treatment of cancers” (Amgen Inc., priority 2018, dated 2026).
# Legend:
# KRAS^C118A = biological target: T1, KRAS^C118A (Homo sapiens, UniProt P01116, C118A); assay: SOS1-catalyzed coupled nucleotide exchange assay (Alpha); format: biochemical; conditions: wildtype at position 12
# T1 construct: His-tagged human KRAS^C118A (1-169); made in house; host or cells: Escherichia coli (KRAS, c-RAF); Trichoplusia ni (SOS1)
# T1 sequence (P01116 1-169 isoform P01116-2 C118A): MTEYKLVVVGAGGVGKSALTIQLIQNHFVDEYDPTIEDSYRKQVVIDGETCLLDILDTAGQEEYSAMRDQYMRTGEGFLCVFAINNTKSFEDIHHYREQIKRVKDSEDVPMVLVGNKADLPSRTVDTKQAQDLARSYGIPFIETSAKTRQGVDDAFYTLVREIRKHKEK
# Method: (§1) A cysteine-light mutant construct was used for co-crystallization studies based on the work of Ostrem et al^15.
# (§2) The inhibition of the SOS1-catalyzed nucleotide exchange activity of KRAS^G12C/C118A or KRAS^C118A was measured using Alpha (Amplified Luminescent Proximity Homogeneous Assay) technology. […] For all subsequent steps, DTT was added to the reaction buffer at a final concentration of 1 mM. […] Finally, c-RAF RBD (50 nM final), Alpha glutathione donor beads (PerkinElmer; 20 μg/mL final), and AlphaLISA® nickel chelate acceptor beads (PerkinElmer; 20 μg/mL final), all diluted in DTT-reaction buffer, were added. The reaction mixture was incubated at RT for 5 min, and then the plates were read on an EnVision® Multilabel Reader using the AlphaScreen protocol. […] Signal intensity corresponded with the association of c-RAF RBD with GTP-bound KRAS^G12C/C118A or KRAS^C118A and was normalized to DMSO control.
# KRAS^G12C/C118A = biological target: T2, KRAS^G12C/C118A (Homo sapiens, UniProt P01116, C118A/G12C); assay: as above; format: biochemical
# T2 construct: Recombinant His-tagged human KRAS^G12C/C118A (1-169); made in house; host or cells: Escherichia coli (KRAS, c-RAF); Trichoplusia ni (SOS1)
# T2 sequence (P01116 1-169 isoform P01116-2 G12C/C118A): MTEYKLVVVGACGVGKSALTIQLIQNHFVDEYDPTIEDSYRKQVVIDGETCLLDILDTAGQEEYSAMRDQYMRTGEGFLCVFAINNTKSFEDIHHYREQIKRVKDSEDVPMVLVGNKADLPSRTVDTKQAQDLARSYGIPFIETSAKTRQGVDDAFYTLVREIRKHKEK
# Method: as §1, §2
# [1] = tested on: ERK1/2 phosphorylation in CT-26 KRAS p.G12C tumors; assay: Tumor pharmacodynamic assay (p-ERK, MSD immunoassay); conditions: MEKi 10 mg/kg single oral dose; 2 hours
# [2] = tested on: immune cells in CT-26 KRAS p.G12C tumors; assay: Tumor immunophenotyping by flow cytometry; format: in vivo, mouse; conditions: after 4 days of treatment
# KRAS^G12C = KRAS^G12C (Homo sapiens, UniProt P01116, G12C); assay: Cellular kinetics from time- and concentration-dependence of p-ERK inhibition; format: cell-based; conditions: NCI-H358 cells
# KRAS^G12C, sequence (P01116 1-188 isoform P01116-2 G12C): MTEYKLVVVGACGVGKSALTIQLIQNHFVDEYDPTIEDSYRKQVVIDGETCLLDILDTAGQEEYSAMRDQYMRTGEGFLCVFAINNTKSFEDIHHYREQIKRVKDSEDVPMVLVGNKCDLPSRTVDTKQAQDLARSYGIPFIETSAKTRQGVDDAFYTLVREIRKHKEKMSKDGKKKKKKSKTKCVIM
# Method: To provide an alternative estimate of the rate of GTP-hydrolysis by KRAS^G12C, a SHP2 inhibitor was employed to eliminate all upstream signaling to KRAS.
# To determine the kinetic values of covalent inhibitor-KRAS^G12C adduct formation in cells, basal ERK1/2 phosphorylation levels were measured following treatment with various inhibitor concentrations at various incubation times exactly as described above, and % activity values were used for the kinetic calculations.
# MIA PaCa-2 (pancreas) = assay: In vitro two-way combination matrix, growth inhibition, Loewe synergy score; format: cell-based, human
# NCI-H358 tumors = assay: Tumor xenograft efficacy study, single agent and combinations; format: in vivo, mouse; conditions: AMG 510 10 or 30 mg/kg QD oral; carboplatin 50 or 100 mg/kg IP 1x/week
compound,measurement,setting,value
"CCC(=O)N1CCN(c2nc(=O)n(-c3c(C)ccnc3C(C)C)c3nc(-c4c(O)cccc4F)c(F)cc23)[C@@H](C)C1 (atropisomer, axis not shown; (M)) [non-reactive analog of AMG 510, (M)-6-Fluoro-7-(2-fluoro-6-hydroxyphenyl)-1-(4-methyl-2-(2-propanyl)-3-pyridinyl)-4-((2S)-2-methyl-4-propanoyl-1-piperazinyl)pyrido[2,3-d]pyrimidin-2(1H)-one]",inhibition of KRAS^C118A nucleotide exchange,KRAS^C118A,minimal activity
same,inhibition of KRAS^G12C/C118A nucleotide exchange,KRAS^G12C/C118A,minimal activity
"O=C(NOC[C@H](O)CO)c1ccc(F)c(F)c1Nc1ccc(I)cc1F [MEKi, N-(((2R)-2,3-dihydroxypropyl)oxy)-3,4-difluoro-2-((2-fluoro-4-iodophenyl)amino)benzamide]",MAPK signaling in tumors,[1],blocked MAPK signaling downstream of RAS
same,PD-1 expression on CD8+ T cells,[2],moderately increased
same,T cell infiltration of tumors,[2],did not affect numbers of infiltrating CD8+ T cells
same,infiltration of macrophages and dendritic cells,[2],not observed
Cc1nc(N2CCC3(CC2)CO[C@@H](C)[C@H]3N)c(CO)nc1-c1cccc(Cl)c1Cl [RMC-4550],cellular GTP hydrolysis rate from p-ERK inhibition by SHP2 inhibitor,KRAS^G12C,0.00094 s⁻¹
same,single agent activity,MIA PaCa-2 (pancreas),lack of single agent activity
N.N.O=C([O-])C1(C(=O)[O-])CCC1.[Pt+2] [carboplatin],"tumor growth, carboplatin combination study",NCI-H358 tumors,significant tumor growth inhibition
C#Cc1cccc(Nc2ncnc3cc(OCCOC)c(OCCOC)cc23)c1 [erlotinib],single agent activity,MIA PaCa-2 (pancreas),lack of erlotinib activity
